≈ marks a conversion by molar mass, not a printed value.
How the values were obtained:
E. coli ATCC 25922 = assay: microbe, parasite or virus in culture; details: for susceptibility category (S/I/R) given with the MIC: E. coli ATCC 25922; for MIC: Escherichia coli, ATCC25922, 18 h
Protocol: (§1) The MIC were determined by a micro dilution method in Mueller-Hinton broth (MHB) ([Cuenca-Estrella et al., 2010]). The final concentration of bacterial suspension in MHB were 1.0×10^6 CFU/mL. The final concentration of MR-22 ranged 1 ~ 256 μg/mL in 96 wells plate broth at 37°C for 16~18 h. Imipenem was employed as positive control, bacterial grown without treatment as negative control and MHB as blank control. MIC determination was performed by reading the OD600 nm. Take 100 μL samples in holes that have never seen bacterial growth and place them on the LB agar board. The concentration of MR-22 with no bacterial growth was defined as the MBC.

[1] = test system: E. coli clinical strain E01; assay: microbe, parasite or virus in culture; details: for MIC: Escherichia coli, 18 h; for susceptibility category (S/I/R) given with the MIC: strain E01
Protocol: (§2) The clinical strains used in this study were obtained from a tertiary healthcare facility located in Guiyang, a city situated within the Guizhou Province of China. The E. coli ATCC 25922 was obtained from the Key and Characteristic Laboratory of Modern Pathogen Biology at Guizhou Medical University in Guiyang, China. All strains were stored at –80°C in LB medium and routinely cultured at LB medium at 37°C.
as §1

[2] = test system: E. coli clinical strain E02; assay: microbe, parasite or virus in culture; details: for MIC: Escherichia coli, 18 h; for susceptibility category (S/I/R) given with the MIC: strain E02
Protocol: as §2, §1

[3] = test system: E. coli clinical strain E03; assay: microbe, parasite or virus in culture; details: for MIC: Escherichia coli, 18 h; for susceptibility category (S/I/R) given with the MIC: strain E03
Protocol: as §2, §1

[4] = test system: E. coli clinical strain E04; assay: microbe, parasite or virus in culture; details: for MIC: Escherichia coli, 18 h; for susceptibility category (S/I/R) given with the MIC: strain E04
Protocol: as §2, §1

[5] = test system: E. coli clinical strain E05; assay: microbe, parasite or virus in culture; details: for MIC: Escherichia coli, 18 h; for susceptibility category (S/I/R) given with the MIC: strain E05
Protocol: as §2, §1

[6] = test system: E. coli clinical strain E06; assay: microbe, parasite or virus in culture; details: for MIC: Escherichia coli, 18 h; for susceptibility category (S/I/R) given with the MIC: strain E06
Protocol: as §2, §1

[7] = test system: E. coli clinical strain E07; assay: microbe, parasite or virus in culture; details: for MIC: Escherichia coli, 18 h; for susceptibility category (S/I/R) given with the MIC: strain E07
Protocol: as §2, §1

[8] = test system: E. coli clinical strain E08; assay: microbe, parasite or virus in culture; details: for MIC: Escherichia coli, 18 h; for susceptibility category (S/I/R) given with the MIC: strain E08
Protocol: as §2, §1

[9] = test system: E. coli clinical strain E09; assay: microbe, parasite or virus in culture; details: for MIC: Escherichia coli, 18 h; for susceptibility category (S/I/R) given with the MIC: strain E09
Protocol: as §2, §1

[10] = test system: E. coli clinical strain E10; assay: microbe, parasite or virus in culture; details: for MIC: Escherichia coli, 18 h; for susceptibility category (S/I/R) given with the MIC: strain E10
Protocol: as §2, §1

[11] = test system: E. coli clinical strain E11; assay: microbe, parasite or virus in culture; details: for MIC: Escherichia coli, 18 h; for susceptibility category (S/I/R) given with the MIC: strain E11
Protocol: as §2, §1

[12] = test system: E. coli clinical strain E12; assay: microbe, parasite or virus in culture; details: for MIC: Escherichia coli, 18 h; for susceptibility category (S/I/R) given with the MIC: strain E12
Protocol: as §2, §1

[13] = test system: E. coli clinical strain E13; assay: microbe, parasite or virus in culture; details: for MIC: Escherichia coli, 18 h; for susceptibility category (S/I/R) given with the MIC: strain E13
Protocol: as §2, §1

[14] = test system: E. coli clinical strain E14; assay: microbe, parasite or virus in culture; details: for MIC: Escherichia coli, 18 h; for susceptibility category (S/I/R) given with the MIC: strain E14
Protocol: as §2, §1

[15] = test system: E. coli clinical strain E15; assay: microbe, parasite or virus in culture; details: for MIC: Escherichia coli, 18 h; for susceptibility category (S/I/R) given with the MIC: strain E15
Protocol: as §2, §1

[16] = test system: E. coli clinical strain E16; assay: microbe, parasite or virus in culture; details: for MIC: Escherichia coli, 18 h; for susceptibility category (S/I/R) given with the MIC: strain E16
Protocol: as §2, §1

[17] = test system: E. coli clinical strain E17; assay: microbe, parasite or virus in culture; details: for MIC: Escherichia coli, 18 h; for susceptibility category (S/I/R) given with the MIC: strain E17
Protocol: as §2, §1

[18] = test system: E. coli clinical strain E18; assay: microbe, parasite or virus in culture; details: for MIC: Escherichia coli, 18 h; for susceptibility category (S/I/R) given with the MIC: strain E18
Protocol: as §2, §1

[19] = test system: E. coli clinical strain E19; assay: microbe, parasite or virus in culture; details: for MIC: Escherichia coli, 18 h; for susceptibility category (S/I/R) given with the MIC: strain E19
Protocol: as §2, §1

[20] = test system: E. coli clinical strain E20; assay: microbe, parasite or virus in culture; details: for MIC: Escherichia coli, 18 h; for susceptibility category (S/I/R) given with the MIC: strain E20
Protocol: as §2, §1

[21] = test system: E. coli clinical strain E21; assay: microbe, parasite or virus in culture; details: for MIC: Escherichia coli, 18 h; for susceptibility category (S/I/R) given with the MIC: strain E21
Protocol: as §2, §1

[22] = test system: E. coli clinical strain E22; assay: microbe, parasite or virus in culture; details: for MIC: Escherichia coli, 18 h; for susceptibility category (S/I/R) given with the MIC: strain E22
Protocol: as §2, §1

[23] = test system: E. coli ATCC 25922 and clinically drug resistant isolated strains; assay: microbe, parasite or virus in culture; assay type: cell-based, Escherichia coli; details: Escherichia coli; E. coli ATCC 25922 and 22 clinical isolates; microdilution, MHB; read-out: MIC over all strains tested
Protocol: as §1

E. coli E19 = assay: Mice peritonitis model; assay type: in vivo; details: C57BL/6J mice, E19 peritonitis; 10 mg/kg 1 h after infection; after 36 h; ten mice per group; control group 8.73 ± 0.38
Protocol: This study utilized female C57BL/6J mice aged 6-8 weeks, weight range of 18-20 g, which were obtained from SPF Biotechnology Co., Ltd (Beijing, China). The animals were housed under maintained on a standard 12 h light/12 h dark cycle. All animal experiments were conducted in accordance with the Ethical Principles in Animal Research adopted by Guizhou Medical University and were approved by the Institutional Animal Care and Use Committee.
To evaluate the in vivo efficacy of MR-22, we used a mice peritonitis model. A total of 60 mice were divided into three groups: treatment group (10 mg/kg MR-22, intraperitoneal injection), positive control group (10 mg/kg imipenem, intraperitoneal injection), and normal control group (PBS, intraperitoneal injection). Peritonitis was induced by intraperitoneal injection of 1.0 × 10^8 CFU bacterial inoculum in 0.2 mL of E. coli E19. Survival rates were recorded every 12 h for 7 days.
To study the protective effects of MR-22, 10 mice in each group were sacrificed, and peritoneal lavage fluid, blood, liver, and kidney were collected 36 h after administration. The number of colonies in peritoneal lavage fluid and blood were determined by culturing on LB agar, while the tissues were fixed in 4% paraformaldehyde and subjected to hematoxylin and eosin staining to study the morphology.

`C[C@H]1COc2c(N3CCN(C)CC3)c(F)cc3c(=O)c(C(=O)O)cn1c23` [LEV, levofloxacin] was tested, and the “susceptibility category (S/I/R) given with the MIC” value (from here on “susceptibility category”) (E. coli ATCC 25922) was “S”, the MIC (E. coli ATCC 25922) was at most 0.5 µg/mL and the MIC [1] was at most 0.5 µg/mL. For the same molecule, the “susceptibility category” value [1] was “S”, the MIC [2] was at most 0.5 µg/mL and the “susceptibility category” value [2] was “S”. For the same molecule, the MIC [3] was 8 µg/mL (≈ 22.1 µM), the “susceptibility category” value [3] was “R” and the MIC [4] was over 8 µg/mL. For the same molecule, the “susceptibility category” value [4] was “R”, the MIC [5] was at most 0.5 µg/mL and the “susceptibility category” value [5] was “S”. The MIC [6] was 8 µg/mL (≈ 22.1 µM), the “susceptibility category” value [6] was “R” and the MIC [7] was at most 0.5 µg/mL. For the same molecule, the “susceptibility category” value [7] was “S”, the MIC [8] was at most 0.5 µg/mL and the “susceptibility category” value [8] was “S”. The MIC [9] was 8 µg/mL (≈ 22.1 µM), the “susceptibility category” value [9] was “R” and the MIC [10] was at most 0.5 µg/mL. The “susceptibility category” value [10] was “S”, the MIC [11] was at most 0.5 µg/mL and the “susceptibility category” value [11] was “S”. For the same molecule, the MIC [12] was over 8 µg/mL, the “susceptibility category” value [12] was “R” and the MIC [13] was at most 0.5 µg/mL. For the same molecule, the “susceptibility category” value [13] was “S”, the MIC [14] was over 8 µg/mL and the “susceptibility category” value [14] was “R”. The MIC [15] was 0.5 µg/mL (≈ 1.38 µM), the “susceptibility category” value [15] was “S” and the MIC [16] was 1 µg/mL (≈ 2.77 µM). For the same molecule, the “susceptibility category” value [16] was “I”, the MIC [17] was over 8 µg/mL and the “susceptibility category” value [17] was “R”. For the same molecule, the MIC [18] was over 8 µg/mL, the “susceptibility category” value [18] was “R” and the MIC [19] was over 8 µg/mL. For the same molecule, the “susceptibility category” value [19] was “R”, the MIC [20] was over 8 µg/mL and the “susceptibility category” value [20] was “R”. For the same molecule, the MIC [21] was at most 0.5 µg/mL, the “susceptibility category” value [21] was “S” and the MIC [22] was over 8 µg/mL. The “susceptibility category” value [22] was “R”.
`C[C@@H](O)[C@H]1C(=O)N2C(C(=O)O)=C(SCCN=CN)C[C@H]12` [IPM, imipenem] was tested, and the “susceptibility category” value (E. coli ATCC 25922) was “S”, the MIC (E. coli ATCC 25922) was at most 1 µg/mL and the MIC [1] was at most 1 µg/mL. The “susceptibility category” value [1] was “S”, the MIC [2] was at most 1 µg/mL and the “susceptibility category” value [2] was “S”. The MIC [3] was at most 1 µg/mL, the “susceptibility category” value [3] was “S” and the MIC [4] was at most 1 µg/mL. The “susceptibility category” value [4] was “S”, the MIC [5] was at most 1 µg/mL and the “susceptibility category” value [5] was “S”. For the same molecule, the MIC [6] was at most 1 µg/mL, the “susceptibility category” value [6] was “S” and the MIC [7] was at most 1 µg/mL. The “susceptibility category” value [7] was “S”, the MIC [8] was at most 1 µg/mL and the “susceptibility category” value [8] was “S”. For the same molecule, the MIC [9] was at most 1 µg/mL, the “susceptibility category” value [9] was “S” and the MIC [10] was at most 1 µg/mL. The “susceptibility category” value [10] was “S”, the MIC [11] was at most 1 µg/mL and the “susceptibility category” value [11] was “S”. For the same molecule, the MIC [12] was at most 1 µg/mL, the “susceptibility category” value [12] was “S” and the MIC [13] was at most 1 µg/mL. For the same molecule, the “susceptibility category” value [13] was “S”, the MIC [14] was at most 1 µg/mL and the “susceptibility category” value [14] was “S”. For the same molecule, the MIC [15] was at most 1 µg/mL, the “susceptibility category” value [15] was “S” and the MIC [16] was at most 1 µg/mL. For the same molecule, the “susceptibility category” value [16] was “S”, the MIC [17] was at most 1 µg/mL and the “susceptibility category” value [17] was “S”. The MIC [18] was at most 1 µg/mL, the “susceptibility category” value [18] was “S” and the MIC [19] was at most 1 µg/mL. The “susceptibility category” value [19] was “S”, the MIC [20] was at most 1 µg/mL and the “susceptibility category” value [20] was “S”. For the same molecule, the MIC [21] was at most 1 µg/mL, the “susceptibility category” value [21] was “S” and the MIC [22] was at most 1 µg/mL. The “susceptibility category” value [22] was “S”, the MIC [23] was at most 1 µg/mL and the “bacterial content in the peritoneal lavage fluid” value (E. coli E19) was 4.20 ± 0.25 Log10CFU/mL.
